The source of these data is the supplement of paper PMC10307832.

Holding throughout (test): relative viability (nuclei count vs DMSO), 5 days (fraction); higher = more cells survive
Compound in the assay “BAY61-3606 + Alpelisib”: COC1=C(C=C(C=C1)C2=CC3=NC=CN3C(=N2)NC4=C(C=CC=N4)C(=O)N)OC [BAY61-3606] + Cc1nc(NC(=O)N2CCC[C@H]2C(N)=O)sc1-c1ccnc(C(C)(C)C(F)(F)F)c1 [Alpelisib] (partner 2 µM)
The procedure, abridged:
(§1)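 After 5 days of treatment, lung cancer cells in 1536-well plates were fixed and stained in a single step (final 0.05% Triton X-100, 1% formaldehyde, 1 ug/ml Hoechst) and their nuclei counted on 4× images. Treatment had been applied by pin tool the day after seeding as one drug alone or as a fixed anchor-drug dose with five library-drug doses (not always all listed) in √10 steps. Relative viability is the nuclei count of treated wells divided by that of vehicle wells, and values are medians of duplicate plates.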

Compound in the assay “BAY61-3606 + Dasatinib”: COC1=C(C=C(C=C1)C2=CC3=NC=CN3C(=N2)NC4=C(C=CC=N4)C(=O)N)OC [BAY61-3606] + Cc1nc(Nc2ncc(C(=O)Nc3c(C)cccc3Cl)s2)cc(N2CCN(CCO)CC2)n1 [Dasatinib] (partner 0.075 µM)
The method, boiled down:
as §1

Compound in the assay “BAY61-3606 + Crizotinib”: COC1=C(C=C(C=C1)C2=CC3=NC=CN3C(=N2)NC4=C(C=CC=N4)C(=O)N)OC [BAY61-3606] + C[C@@H](Oc1cc(-c2cnn(C3CCNCC3)c2)cnc1N)c1c(Cl)ccc(F)c1Cl [Crizotinib] (partner 1 µM)
The method, boiled down: as §1

Compound in the assay “BAY61-3606 + Tozasertib”: COC1=C(C=C(C=C1)C2=CC3=NC=CN3C(=N2)NC4=C(C=CC=N4)C(=O)N)OC [BAY61-3606] + Cc1cc(Nc2cc(N3CCN(C)CC3)nc(Sc3ccc(NC(=O)C4CC4)cc3)n2)n[nH]1 [Tozasertib] (partner 0.1 µM)
The method, boiled down:
as §1

Regarding UMC-11, the relative viability with BAY61-3606 + Alpelisib (first compound 0.02 µM) was 1.01; with BAY61-3606 + Alpelisib (first compound 0.06325 µM) it was 1.09; in the assay with BAY61-3606 + Alpelisib (first compound 0.2 µM), 1.08; in the assay with BAY61-3606 + Alpelisib (first compound 0.6325 µM), 0.973; with BAY61-3606 + Alpelisib (first compound 2 µM), 0.912; with BAY61-3606 + Dasatinib (first compound 0.02 µM), 0.464. The relative viability amounted to 0.587 with BAY61-3606 + Dasatinib (first compound 0.06325 µM); 0.568 with BAY61-3606 + Dasatinib (first compound 0.2 µM); 0.606 with BAY61-3606 + Dasatinib (first compound 0.6325 µM); 0.524 in the assay with BAY61-3606 + Dasatinib (first compound 2 µM); 0.664 in the assay with BAY61-3606 + Crizotinib (first compound 0.02 µM); 0.613 with BAY61-3606 + Crizotinib (first compound 0.06325 µM). Besides, the relative viability in the assay with BAY61-3606 + Crizotinib (first compound 0.2 µM) came to 0.503; with BAY61-3606 + Crizotinib (first compound 0.6325 µM), 0.762; with BAY61-3606 + Crizotinib (first compound 2 µM), 0.509; with BAY61-3606 + Tozasertib (first compound 0.02 µM) it was 0.2; with BAY61-3606 + Tozasertib (first compound 0.06325 µM), 0.208; with BAY61-3606 + Tozasertib (first compound 0.2 µM) it was 0.207. The relative viability with BAY61-3606 + Tozasertib (first compound 0.6325 µM) is 0.201; with BAY61-3606 + Tozasertib (first compound 2 µM) it was 0.192.
